Assay results: US20030166706A1, “Method of treating osteoarthritis” (priority 2002, published 2003)
“Also recorded” adds a separate entry of the source. Marks after values point to notes of the source that are not given here.

Experiments:
[1] = test system: Monosodium Iodoacetate-induced Osteoarthritis in Rat; assay: Monosodium iodoacetate-induced osteoarthritis in rat model of cartilage damage (MIA Rat); type: in vivo, male Wistar rats
[2] = cited from earlier work
[3] = 4 weeks study, subcutaneously via osmotic pumps, 10 mg/kg/day
[4] = 4 weeks study, subcutaneously via osmotic pumps, 30 mg/kg/day
[5] = 4 weeks study, subcutaneously via osmotic pumps, 100 mg/kg/day

O=C(O)[C@@H]1C[C@@H]2CCCC[C@@H]2N1 [[2(S), 3a(S), 7a(S)]-2,3,3a,4,5,6,7,7a-octahydroindol-2-carboxylic acid]
degree of structural damage to the cartilage ([1]; 10 mg/kg PO, BID, 4 weeks post-MIA): significantly decreased
degree of structural damage to the cartilage ([1]; 30 mg/kg PO, BID, 4 weeks post-MIA): significantly decreased
IJFL (Inhibition of Joint Function Limitation) (% +/− SEM) ([1]; 2 weeks study, subcutaneously via osmotic pumps, 90 mg/kg/day, p < 0.05 versus vehicle): 85 +/− 3%
SDCES (Significant Decrease In Cartilage Erosion Severity) [1, 3]: No
SIJWHLE (Significant Increase in Joints Without Hind Limb Erosion) [1, 3]: No
IJFL (Inhibition of Joint Function Limitation) (% +/− SEM) ([1]; 4 weeks study, subcutaneously via osmotic pumps, 10 mg/kg/day, Not statistically significant): 28 +/− 14^e %
SDCES (Significant Decrease In Cartilage Erosion Severity) [1, 4]: No
SIJWHLE (Significant Increase in Joints Without Hind Limb Erosion) [1, 4]: No
IJFL (Inhibition of Joint Function Limitation) (% +/− SEM) ([1]; 4 weeks study, subcutaneously via osmotic pumps, 30 mg/kg/day, p < 0.05 versus vehicle): 94 +/− 10%
SDCES (Significant Decrease In Cartilage Erosion Severity) [1, 5]: No
SIJWHLE (Significant Increase in Joints Without Hind Limb Erosion) [1, 5]: No
IJFL (Inhibition of Joint Function Limitation) (% +/− SEM) ([1]; 4 weeks study, subcutaneously via osmotic pumps, 100 mg/kg/day, p < 0.05 versus vehicle): 78 +/− 3%
inhibiting cartilage damage and treating osteoarthritis, from analysis of proteoglycan loss ([1]; MIA Rat data that are expected): effective
joint pain ([1]; all doses, 3 to 30 mg/kg PO, BID, 4 weeks post-MIA): significantly decreased joint pain
preventing or treating cartilage damage ([1]; conclusion from MIA Rat data of Tables 1 and 2): effective
joint function limitations as defined by a reduction in differential hind-limb weight bearing ([1]; dosed orally two times per day): decrease joint function limitations
SIJWHLE (Significant Increase in Joints Without Hind Limb Erosion) ([1]; four week study, oral, two times per day, 3 mg/kg per dose, Cochran-Armitage Trend test): No
SDCES (Significant Decrease In Cartilage Erosion Severity) ([1]; four week study, oral, two times per day, 3 mg/kg per dose, Ridit Analysis): No
IJFL (Inhibition of Joint Function Limitation) (% +/− SEM) ([1]; four week study, oral, two times per day, 3 mg/kg per dose, p < 0.05 versus vehicle): 62 +/− 6%
SIJWHLE (Significant Increase in Joints Without Hind Limb Erosion) ([1]; four week study, oral, two times per day, 10 mg/kg per dose, Cochran-Armitage Trend test, actual p = 0.046): Yes^f
SDCES (Significant Decrease In Cartilage Erosion Severity) ([1]; four week study, oral, two times per day, 10 mg/kg per dose, Ridit Analysis, 10 mg/kg): significantly decrease cartilage erosion severity and No
IJFL (Inhibition of Joint Function Limitation) (% +/− SEM) ([1]; four week study, oral, two times per day, 10 mg/kg per dose, p < 0.05 versus vehicle): 70 +/− 9%
SIJWHLE (Significant Increase in Joints Without Hind Limb Erosion) ([1]; four week study, oral, two times per day, 30 mg/kg per dose, Cochran-Armitage Trend test, actual p = 0.020): Yes^e
IJFL (Inhibition of Joint Function Limitation) (% +/− SEM) ([1]; four week study, oral, two times per day, 30 mg/kg per dose, p < 0.05 versus vehicle): 83 +/− 7%
SDCES (Significant Decrease In Cartilage Erosion Severity) ([1]; four week study, oral, two times per day, 30 mg/kg per dose, p < 0.05 versus vehicle (Ridit Analysis), actual p = 0.021, 30 mg/kg): significantly decrease cartilage erosion severity; also recorded: Yes^d

Cc1onc(-c2ccccc2)c1-c1ccc(S(N)(=O)=O)cc1 [valdecoxib, 4-(5-methyl-3-phenyl-4-isoxazolyl)-benzenesulfonamide]
tolerability ([2]; combined analysis of various clinical studies): well tolerated
overall upper gastrointestinal safety profile (ulcers, perforations, obstructions and GI bleeds) ([2]; versus conventional NSAIDs studied such as ibuprofen, diclofenac and naproxen): significantly better
